From US9949976B2, “Kinase inhibitor and use thereof” (Sihuan Pharmaceutical Holdings Group Ltd., priority 2013, dated 2018)
Like-named read-outs stand apart in the source and are kept apart here.

Key:
[1] = Linear pharmacokinetics in rat (PO); assay type: in vivo, male SD rat; conditions: for AUC(0-t) / Cmax / Tmax: male, SD, plasma
Protocol: Test animal: male SD rat, 3 rats/administration dose/test compound, weight: 200-240 g/rat.
100 μL whole blood was collected from caudal vein at each time point, added to an anticoagulation tube containing K2EDTA, and centrifuged at 8000 r/min in a high speed centrifuge for 6 min to separate the plasma; the plasma was stored in a refrigerator at −80° C.
The plasma samples of control agent and compound 1 were analyzed by precipitation of protein: to 30 μL plasma, 200 μL internal standard (acetonitrile solution containing 50 ng/mL PD0332991, the formula of which is
[drawing 62] prepared by referring to the method in Patent CN101001857A) was added; the resultant mixture was vortexed for 10 min at 1500 r/min, and centrifuged for 20 min at 4000 r/min; to 100 μL supernatant, 100 μL water was added; the resultant mixture was mixed homogeneously under vortexing and analyzed by LC-MS/MS.

[2] = Pharmacokinetics in nude mouse (IV and PO); assay type: in vivo; conditions: female, BALB/c nude, plasma; for Vd: read-out: Vss; for bioavailability: read-out: F (absolute bioavailability)
Protocol: Test animal: female nude mouse (BALB/c); control agent: 3 mice/administration route at each time point, weight: 22-25 g/mouse; Compound 1: 3 mice/administration route at each time point, weight: 22-25 g/mouse; Compound 6-1: 6 mice/administration route/test compound, weight: 18-26 g/mouse.
Control agent/Compound 1, IV administration group: before administration, 0.083, 0.25, 0.5, 1, 2, 4, 6, 8, 24, and 30 h after administration; PO administration group (10 mg/kg): before administration, 0.167, 0.5, 1, 2, 4, 6, 8, 24, and 30 h after administration.
Compound 1, PO administration group (100 mg/kg): 0.167, 0.5, 1, 2, 4, 6, 8, 24, 30, and 48 h after administration.
Compound 6-1, IV administration group (2.5 mg/kg) and PO administration group (10 mg/kg): 0.083, 0.25, 0.5, 1, 2, 4, 6, 8 and 24 h after administration; Compound 6-1, PO administration group (100 mg/kg): 0.083, 0.25, 0.5, 1, 2, 4, 6, 8, 24, 30, 48 h after administration.
Control agent/Compound 1: 300 μL whole blood was collected from intraocular canthus at each time point, and was centrifuged at 8000 r/min for 6 min in a high speed centrifuge to separate the plasma; the plasma was stored in a refrigerator at −80° C. Compound 6-1: 60 μL whole blood was collected from intraocular canthus at each time point, and was placed in an anticoagulation tube containing anticoagulant agent K2EDTA; the blood sample was centrifuged at 8000 r/min for 6 min to obtain a plasma sample.
The plasma samples of control agent and compound 1 were analyzed by precipitation of protein: to 50 μL plasma, 200 μL internal standard (acetonitrile solution containing 500 ng/mL Warfarin) was added; the resultant mixture was vortexed for 3 min at 1500 r/min, and centrifuged for 5 min at 13000 r/min; to 100 μL supernatant, 400 μL water was added; the resultant mixture was mixed homogeneously under vortexing and analyzed by LC-MS/MS.
The plasma sample of compound 6-1 was analyzed by precipitation of protein: to a suitable amount of plasma, a given volume of internal standard solution was added; the resultant mixture was vortexed and centrifuged; the supernatant was diluted by adding a given volume of water; the resultant mixture was mixed homogeneously under vortexing and analyzed by LC-MS/MS.

[3] = PK in U-87MG subcutaneous tumor model of BALB/c nude mouse; assay type: in vivo; conditions: female, plasma, U87MG tumor-bearing nude mouse, PO QD 3 weeks, after last administration (Day 22)
Protocol: Test animal: female nude mouse (BALB/c), 10 mice/dose group/test compound, weight: 18-22 g/mouse.
U87MG cells from ATCC were cultured in MEM medium containing 10% fetal bovine serum; the cells were digested with trypsin containing EDTA by conventional methods; the cells were passaged for two generations every week, and were continuously cultured in a 37° C., 5% CO2 incubator.
Tumor cells in exponential growth phase were collected; U87MG cells were adjusted with PBS and matrigel at a ratio of 1:1 to a concentration of 5×10^7/mL; 0.1 mL cell suspension was seeded subcutaneously to right back of each mouse by injection with a 1 mL syringe. Tumor volumes were observed and measured, and the average tumor volume of U87MG reached about 200 mm^3 8 days after seeding; the tumor-bearing mice were grouped and were treated by oral administration of test compounds, at a dose of 0.1 mL/10 g body weight.
Blood collection: blood was collected from intraocular canthus. After the last administration (Day 22) of control agent and compound 1, blood/tumor was collected at the same time points, wherein as to 10 nude mice for each dose group, one was for standby, and the other 9 mice were divided into three groups, i.e., A, B and C groups.
A group (No. 1-3): blood was collected before administration, and at 1 h and 2 h after administration, and the mouse was sacrificed after blood collection at 2 h;
B group (No. 4-6): blood was collected at 15 min, 4 h and 6 h after administration, and the mouse was sacrificed after blood collection at 6 h;
C group (No. 7-9): blood was collected at 30 min, 10 h and 24 h after administration, and the mouse was sacrificed after blood collection at 24 h;
300 μL whole blood was collected at each time point, added to an anticoagulation tube containing K2EDTA, and centrifuged at 8000 r/min in a high speed centrifuge for 6 min to separate the plasma; the plasma was stored in a refrigerator at −80° C.
The plasma samples of control agent and compound 1 were analyzed by precipitation of protein: 30 μL plasma was added to a 96-deep well plate, and 200 μL internal standard (acetonitrile solution containing 25 ng/mL PD0332991) was added; the resultant mixture was vortexed for 3 min at 1500 r/min, and centrifuged for 20 min at 4000 r/min; to 100 μL supernatant, 100 μL water was added; the resultant mixture was mixed homogeneously under vortexing and analyzed by LC-MS/MS.

Structure (SMILES)	AUC(0-t) ([1]; 15 mg/kg) [ng·h/mL]	Cmax ([1]; 15 mg/kg) [ng/mL]	Tmax ([1]; 15 mg/kg) [h]	AUC(0-t) ([1]; 45 mg/kg) [ng·h/mL]	Cmax ([1]; 45 mg/kg) [ng/mL]	Tmax ([1]; 45 mg/kg) [h]	AUC(0-t) ([1]; 135 mg/kg) [ng·h/mL]	Cmax ([1]; 135 mg/kg) [ng/mL]	Tmax ([1]; 135 mg/kg) [h]	AUC(0-t) ([2]; IV, 5 mg/kg) [ng·h/mL]	clearance ([2]; IV, 5 mg/kg) [mL/min/kg]	Vd ([2]; IV, 5 mg/kg) [L/kg]	AUC(0-t) ([2]; PO, 10 mg/kg) [ng·h/mL]	Cmax ([2]; PO, 10 mg/kg) [ng/mL]	Tmax ([2]; PO, 10 mg/kg) [h]	bioavailability ([2]; PO, 10 mg/kg) [%]	AUC(0-t) ([3]; 50 mg/kg) [ng·h/mL]	Cmax ([3]; 50 mg/kg) [ng/mL]	Tmax ([3]; 50 mg/kg) [h]	AUC(0-t) ([3]; 100 mg/kg) [ng·h/mL]	other results
CCN1CCN(Cc2ccc(Nc3ncc(F)c(-c4cc(F)c5nc(C)n(C(C)C)c5c4)n3)nc2)CC1 [LY2835219, reference compound]	9690	504	4	32600	860	4	97600	1370	24	1590	50.2	5.79	1310	368	0.5	41.1	19400	1160	1	27900	Cmax ([3]; 100 mg/kg): 1530 ng/mL; Tmax ([3]; 100 mg/kg): 4 h
CCN1CCN(Cc2cnc(Nc3cc(-c4cc(F)c5nc(C)n(C(C)C)c5c4)c(F)cn3)nc2)CC1 [Compound 1, 5-((4-ethylpiperazin-1-yl)methyl)-N-(5-fluoro-4-(4-fluoro-1-isopropyl-2-methyl-1H-benzo[d]imidazol-6-yl)pyridin-2-yl)pyrimidin-2-amine]	12600	941	4	37700	1580	4	136000	2410	24	2080	38.2	4.61	2760	675	2	65.5	23500	1770	2	34800	linear pharmacokinetic properties ([1]; 15-135 mg/kg, AUClast increases with dose in a linear manner): good linear pharmacokinetic properties; AUC(0-t) ([2]; PO, 100 mg/kg): 33900 ng·h/mL; Cmax ([2]; PO, 100 mg/kg): 3080 ng/mL; Tmax ([2]; PO, 100 mg/kg): 2 h; bioavailability ([2]; PO, 100 mg/kg): 77.9%; Cmax ([3]; 100 mg/kg): 2180 ng/mL; Tmax ([3]; 100 mg/kg): 1 h; AUC(0-t) ([3]; 200 mg/kg): 49700 ng·h/mL; Cmax ([3]; 200 mg/kg): 2510 ng/mL; Tmax ([3]; 200 mg/kg): 6 h
